Results reported in US4857524A, “Thiazolidine compounds and therapeutic method” (Kissei Pharmaceutical Co., Ltd., priority 1987, dated 1989).
Square brackets hold non-standard residues; d marks the D form. Peptide text beside a SMILES is read from it. * marks the point of attachment. Thz = O=C(O)[C@@H]1CSCN1; Cbz = O=C(OCc1ccccc1)*

Biological target: T1, prolyl endopeptidase (Bos taurus, UniProt Q9XTA2)
T1 construct: the enzyme purified from bovine brain; from tissue; host or cells: bovine brain
T1 sequence (Q9XTA2 1-710): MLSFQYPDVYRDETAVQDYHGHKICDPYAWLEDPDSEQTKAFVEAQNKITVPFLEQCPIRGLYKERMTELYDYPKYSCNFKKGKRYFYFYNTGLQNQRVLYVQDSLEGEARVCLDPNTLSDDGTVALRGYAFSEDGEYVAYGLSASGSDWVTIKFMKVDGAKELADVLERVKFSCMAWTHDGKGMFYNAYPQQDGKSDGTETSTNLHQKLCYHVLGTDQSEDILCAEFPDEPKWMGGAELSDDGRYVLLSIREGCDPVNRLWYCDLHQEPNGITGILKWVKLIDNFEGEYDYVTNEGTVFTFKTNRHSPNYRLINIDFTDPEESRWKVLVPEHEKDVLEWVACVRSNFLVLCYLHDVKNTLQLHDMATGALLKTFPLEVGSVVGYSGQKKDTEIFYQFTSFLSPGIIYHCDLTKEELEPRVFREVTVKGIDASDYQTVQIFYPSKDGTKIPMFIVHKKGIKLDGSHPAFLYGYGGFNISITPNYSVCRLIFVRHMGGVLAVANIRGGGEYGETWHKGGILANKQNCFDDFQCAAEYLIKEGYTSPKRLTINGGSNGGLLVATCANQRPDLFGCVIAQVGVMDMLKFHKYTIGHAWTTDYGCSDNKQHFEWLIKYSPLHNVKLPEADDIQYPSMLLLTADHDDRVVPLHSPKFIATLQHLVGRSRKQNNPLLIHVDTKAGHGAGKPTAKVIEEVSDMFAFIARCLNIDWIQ
Test: Inhibitory Effect for Prolyl Endopeptidase (enzyme purified from bovine brain)
Format: biochemical
Experimental: To 0.5 ml of the supernatant was added 0.5 ml of 0.1% sodium nitrite aqueous solution, and after 3 minutes, 0.5 ml of 0.5% ammonium sulfamate and 1 ml of 0.05% N-(1-naphthyl)ethylenediamine dihydrochloride in ethanol were further added . The mixture was left for 25 minutes at 37° C., and the absorbance was measured at 570 nm.
The unit of the enzyme activity (μmol/min/ml)=ΔOD×0.42×a dilution factor

| SMILES | IC50 [µM] |
| --- | --- |
| COC(=O)[C@@H]1CSCN1C(=O)[C@@H]1CSCN1C(=O)OCc1ccccc1 [Compound G, (R)-(-)-3-[(R)-(-)-3-Benzyloxycarbonylthiazolidine-4-carbonyl]thiazolidine-4-carboxylic acid methyl ester] (Cbz-[Thz]-[Thz]-OMe) | 0.21 |
| O=C([C@@H]1CSCN1C(=O)OCc1ccccc1)N1CCSCC1 [Compound F, N-[(R)-(-)-3-Benzyloxycarbonylthiazolidine-4-carbonyl]thiomorpholine] | 230 |
| O=C([C@@H]1CSCN1C(=O)C=Cc1ccccc1)N1CCSC1 [Compound P, 3-[(R)-(-)-3-Cinnamoylthiazolidine-4-carbonyl]thiazolidine] | 3.24 |
| O=C([C@@H]1CSCN1C(=O)c1ccncc1)N1CCSC1 [Compound U, 3-[(R)-(-)-3-Isonicotinoylthiazoidine-4-carbonyl]thiazolidine] | 1.3 |
| O=C([C@@H]1CSCN1C(=O)Cc1ccccc1)N1CCSC1 [Compound N, 3-[(R)-(-)-3-Phenylacetylthiazolidine-4-carbonyl]thiazolidine] | 0.0631 |
| O=C([C@@H]1CSCN1C(=O)C=Cc1ccccc1)N1CCCC1 [Compound Q, 1-[(R)-(-)-3-Cinnamoylthiazolidine-4-carbonyl]pyrrolidine] | 4.6 |
| O=C([C@@H]1CSCN1C(=O)OCc1ccccc1)N1CCSC1 [Compound A, 3-[(R)-(-)-3-Benzyloxycarbonylthiazolidine-4-carbonyl]thiazolidine] | 0.00026 |
| O=C([C@@H]1CSCN1C(=O)CCc1ccccc1)N1CCSC1 [Compound H, 33-[(R)-(-)-3-(3-Phenylpropionyl)thiazolidine-4-carbonyl]thiazolidine] | 0.4 |
| O=C([C@@H]1CSCN1C(=O)Cc1ccccc1)N1CCCC1 [Compound O, 1-[(R)-(-)-3-Phenylacetylthiazolidine-4-carbonyl]pyrrolidine] | 0.66 |
| COC(=O)[C@@H]1CCCN1C(=O)[C@@H]1CSCN1C(=O)OCc1ccccc1 [Compound B, (S)-(-)-N-[(R)-(-)-3-Benzyloxycarbonylthiazolidine-4-carbonyl]pyrrolidine-2-carboxylic acid methyl ester] (Cbz-[Thz]-Pro-OMe) | 72 |
